Source: ChEMBL document CHEMBL1201862, “PubChem BioAssay data set” (2004)
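Five compound concentrations were applied to cells in 96-well plates for 48 hours; endpoints were derived by simple linear interpolation of the resulting dose-response curve. At the GI50, growth is halved.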 Activity calls are given as the source filed them. Cut-off read from the data, not from the text of the source: active = GI50 up to about 1.1 µM and inactive = higher.

What was measured:
Test in all cases: NCI-60 cell line screen, 48 h
HL-60 = test system: HL-60
HOP-62 = test system: HOP-62
HT-29 = test system: HT-29
K562 = test system: K562
LOX IMVI = test system: LOX IMVI
MOLT-4 = test system: MOLT-4
NCI-H226 = test system: NCI-H226
OVCAR-5 = test system: OVCAR-5
OVCAR-8 = test system: OVCAR-8
RPMI-8226 = test system: RPMI-8226
RXF 393 = test system: RXF 393
SK-MEL-28 = test system: SK-MEL-28
SK-MEL-5 = test system: SK-MEL-5
SNB-75 = test system: SNB-75
SR = test system: SR
T47D = test system: T47D
UACC-257 = test system: UACC-257
NCI-H460 = test system: NCI-H460
UACC-62 = test system: UACC-62
HCC 2998 = test system: HCC 2998

Measured: GI50

CCOc1cc(NC(C)=O)ccc1C(=O)NN1C(=O)C(Oc2ccccc2)C1c1ccc(O)c(OC)c1 (stereo unspecified)
inactive: HL-60 19.8 µM | HOP-62 42.7 µM | HT-29 36.7 µM | K562 31.3 µM | LOX IMVI 29.8 µM | MOLT-4 12.9 µM | NCI-H226 34.2 µM | OVCAR-5 > 100 µM | OVCAR-8 22.1 µM | RPMI-8226 25.5 µM | RXF 393 24.3 µM | SK-MEL-28 79.4 µM | SK-MEL-5 19.1 µM | SNB-75 44.6 µM | SR 25.8 µM | T47D 14.4 µM | UACC-257 47 µM

[O-][n+]1c2ccccc2[n+]([O-])c2ccccc21
inactive: HL-60 11.5 µM | HOP-62 > 100 µM | HT-29 86.3 µM | K562 > 100 µM | LOX IMVI > 100 µM | MOLT-4 2.74 µM | NCI-H226 > 100 µM | NCI-H460 30.1 µM | OVCAR-5 > 100 µM | OVCAR-8 86.3 µM | RPMI-8226 16.8 µM | SK-MEL-28 > 100 µM | SK-MEL-5 37.5 µM | SNB-75 > 100 µM | SR 13 µM | T47D 35.3 µM | UACC-257 > 100 µM | UACC-62 > 100 µM

O=c1c2cc3c(=O)n4c(cc(-c5ccccc5)c5cc(Cl)ccc54)nc3cc2nc2cc(-c3ccccc3)c3cc(Cl)ccc3n12
inactive: HCC 2998 > 100 µM | HOP-62 34.9 µM | HT-29 > 100 µM | K562 > 100 µM | LOX IMVI > 100 µM | MOLT-4 > 100 µM | NCI-H226 > 100 µM | NCI-H460 > 100 µM | OVCAR-5 > 100 µM | OVCAR-8 > 100 µM | RPMI-8226 > 100 µM | RXF 393 34.8 µM | SK-MEL-28 > 100 µM | SK-MEL-5 > 100 µM | SNB-75 36.8 µM | SR > 100 µM | T47D > 100 µM | UACC-257 > 100 µM | UACC-62 > 100 µM

CC(=O)C(=NNc1ccc(-n2c(C)nc3ccc(Br)cc3c2=O)cc1)C(C)=O
inactive: HL-60 > 100 µM | HOP-62 35.8 µM | HT-29 > 100 µM | K562 > 100 µM | LOX IMVI > 100 µM | MOLT-4 > 100 µM | NCI-H226 72.9 µM | NCI-H460 > 100 µM | OVCAR-5 > 100 µM | OVCAR-8 53.7 µM | RPMI-8226 50.4 µM | SK-MEL-28 > 100 µM | SK-MEL-5 65.6 µM | SNB-75 20.7 µM | SR > 100 µM | T47D > 100 µM | UACC-257 > 100 µM | UACC-62 82.4 µM

CCOC(=O)C1C(c2ccc3c(c2)OCO3)c2c(n[nH]c2O)CC1(O)OCC (stereo unspecified)
inactive: HCC 2998 > 100 µM | HL-60 > 100 µM | HOP-62 > 100 µM | HT-29 > 100 µM | LOX IMVI > 100 µM | MOLT-4 > 100 µM | NCI-H460 > 100 µM | OVCAR-5 > 100 µM | OVCAR-8 > 100 µM | RPMI-8226 > 100 µM | SK-MEL-28 > 100 µM | SK-MEL-5 > 100 µM | SNB-75 > 100 µM | SR > 100 µM | T47D > 100 µM | UACC-257 > 100 µM | UACC-62 > 100 µM

Nc1ncnc2c1ncn2[C@@H]1C[C@@H]1CO
inactive: HCC 2998 > 100 µM | HL-60 > 100 µM | HOP-62 > 100 µM | HT-29 > 100 µM | K562 > 100 µM | LOX IMVI > 100 µM | MOLT-4 > 100 µM | NCI-H226 > 100 µM | NCI-H460 > 100 µM | OVCAR-5 > 100 µM | OVCAR-8 > 100 µM | RPMI-8226 > 100 µM | SR > 100 µM | T47D > 100 µM | UACC-257 > 100 µM

CC1(C)OCC2(CO1)CSCCCSCC1(COC(C)(C)OC1)CSCCCSC2
inactive: HCC 2998 > 100 µM | HL-60 > 100 µM | HOP-62 > 100 µM | HT-29 > 100 µM | K562 > 100 µM | LOX IMVI > 100 µM | MOLT-4 > 100 µM | NCI-H460 > 100 µM | OVCAR-5 > 100 µM | OVCAR-8 > 100 µM | RPMI-8226 > 100 µM | SK-MEL-28 > 100 µM | SK-MEL-5 > 100 µM | SNB-75 90.6 µM | SR > 100 µM | T47D > 100 µM | UACC-257 > 100 µM | UACC-62 > 100 µM

N=C(N)Nc1nc2cc([N+](=O)[O-])ccc2[nH]1
inactive: HL-60 > 100 µM | HOP-62 > 100 µM | HT-29 > 100 µM | K562 93.5 µM | LOX IMVI > 100 µM | MOLT-4 > 100 µM | NCI-H226 > 100 µM | NCI-H460 > 100 µM | OVCAR-5 > 100 µM | OVCAR-8 > 100 µM | RPMI-8226 > 100 µM | RXF 393 58.9 µM | SK-MEL-28 > 100 µM | SK-MEL-5 83 µM | SNB-75 22.1 µM | SR > 100 µM | T47D 69.2 µM | UACC-257 80.2 µM | UACC-62 55.1 µM
